Test results: US20050009005A1, “Methods of using quantitative lipid metabolome data” (Lipomics Technologies, Inc., priority 2001, published 2005)

System: de novo fatty acid synthesis
Assay: Lipid metabolite profile of plasma, heart, liver and inguinal adipose of CL316,243-treated mice (trial 2; Tables 7 and 8)
Type: in vivo
Conditions: for 14:0 / 16:0 / 16:1n7 / 18:0 / 18:1n7 / 18:1n9 / Saturates / Total / Total n7 / Total n9 / Total nMole of FA: mean
Source text: It is understood that the described methods can be used to analyze lipid metabolites from other subjects, including particularly animals other than mice.
Mouse tissue and plasma samples were a generous donation to Lipomics Technologies, Inc., from Dr. Edward Leiter of the Jackson Laboratory (Bar Harbor, Me.). Samples included the plasma, heart, liver and inguinal adipose of mice treated with pharmaceuticals or their corresponding controls.
In trial 2, male, inbred NON mice were fed a control with or without the presence of the β-3 adrenergic agonist CL316,243 for four weeks (at 0.001% CL316,243 by weight in the dietary chow).
In both studies, five treated and five control mice were used. Following the treatments and the killing of the mice, tissues and plasma were taken, chilled to −80 ° C. and shipped to the analysis laboratory at Lipomics Technologies in a frozen state.
Tissue processing and lipid extraction, including provision of internal standards, was carried out essentially as described in Watkins et al. (J. Lipid Res. Papers in Press, 10.1184/jlf.M200169-JLF200, published August 16, 2002), and in co-owned international application PCT/US02/21426, entitled “GENERATING, VIEWING, INTERPRETING, AND UTILIZING A QUANTITATIVE DATABASE OF METABOLITES,” both of which are incorporated in their entirety herein by reference.
The separation of lipid classes was performed in some instance by preparative thin-layer chromatography (TLC). To remove any residual metal or other damaging contaminants on the TLC plates, each plate was washed prior to use. Washing the plates is a three-step process that involves impregnating each plate with ethylenediamine tetraacetic acid (EDTA) and rinsing the plates once with methanol and once with chloroform. Each plate is first impregnated with 1 mM EDTA, pH 5.5, by ascending development using the method of Ruiz (J. Lipid Res. 38, 1482-1489, 1997). After each plate was completely developed, it was dried in air overnight. Once dry, each plate was developed in methanol, dried, and developed in chloroform in the same direction as the development with EDTA. The washed plates were then dried in air. Just prior to use, each plate was activated by heating to 110° C. for 10 minutes.
To prepare the TLC chamber for chromatography, Whatman (Clifton, N.J.) filter paper was cut into 20×80-cm strips and wrapped around the inside wall of a 30×60×10-cm glass development chamber. One hundred milliliters of the appropriate mobile phase was added to the chamber, and the chambers were sealed and allowed to equilibrate. Chambers were considered equilibrated when the solvent front had completely ascended the filter paper. The mobile phase employed for the separation of phospholipid classes (lyso-phospholipids, sphingomyelin, phosphatidylcholine, phosphatidylserine, phosphatidylethanolamine and cardiolipin) was a modification of the solvent system described by Holub and Skeaf (“Nutritional regulation of cellular phosphatidylinositol,” in Methods in Enzymology, ed. Conn, P. M. (Academic Press, Inc., Orlando), pp. 234-243, 1987) consisting of chloroform/methanol/acetic acid/water (100:67:7:4, by volume).
For the separation of neutral lipid classes (free fatty acids, free sterols, triacylglycerides and cholesterol esters), a solvent system consisting of petroleum ether/diethyl ether/acetic acid (80:20:1, by volume) was used (Mangold, Thin Layer Chromatography—A Laboratory Handbook (Springer-Verlag, New York), 1969).
After the TLC plate was activated, the sample extracts were spotted onto the activated plate. As a general rule, samples were spotted at an estimated concentration such that no single lipid class was present at more than 25 jig per centimeter of plate width following chromatography. This ensured that the plate was not overloaded and minimized the risk of cross-contamination between lipid classes (cross-contamination is readily identified during sample analysis as each lipid class contains unique internal standards). […]

C[C@H](Cc1ccc2c(c1)OC(C(=O)[O-])(C(=O)[O-])O2)NC[C@H](O)c1cccc(Cl)c1.[Na+].[Na+] [CL316,243]
14:0 (Adipose, CE): 65.2 nanomoles per gram
16:0 (Adipose, CE): 326.2 nanomoles per gram
16:1n7 (Adipose, CE): 85.7 nanomoles per gram
18:0 (Adipose, CE): 72.1 nanomoles per gram
18:1n7 (Adipose, CE): 50.6 nanomoles per gram
18:1n9 (Adipose, CE): 344.4 nanomoles per gram
14:0 (Adipose, FFA): 833.3 nanomoles per gram
16:0 (Adipose, FFA): 6822.9 nanomoles per gram
16:1n7 (Adipose, FFA): 2652.0 nanomoles per gram
18:0 (Adipose, FFA): 1467.5 nanomoles per gram
18:1n7 (Adipose, FFA): 864.3 nanomoles per gram
18:1n9 (Adipose, FFA): 9845.4 nanomoles per gram
14:0 (Adipose, PL): 74.4 nanomoles per gram
16:0 (Adipose, PL): 1403.3 nanomoles per gram
16:1n7 (Adipose, PL): 291.2 nanomoles per gram
18:0 (Adipose, PL): 1249.1 nanomoles per gram
18:1n7 (Adipose, PL): 118.1 nanomoles per gram
18:1n9 (Adipose, PL): 794.7 nanomoles per gram
14:0 (Adipose, TAG): 79501.6 nanomoles per gram
16:0 (Adipose, TAG): 666399.1 nanomoles per gram
16:1n7 (Adipose, TAG): 265948.0 nanomoles per gram
18:0 (Adipose, TAG): 73800.5 nanomoles per gram
18:1n7 (Adipose, TAG): 49837.1 nanomoles per gram
18:1n9 (Adipose, TAG): 793227.6 nanomoles per gram
14:0 (Adipose, lipid class CE): 4.5 percentage of total fatty acids
16:0 (Adipose, lipid class CE): 24.4 percentage of total fatty acids
16:1n7 (Adipose, lipid class CE): 6.8 percentage of total fatty acids
18:0 (Adipose, lipid class CE): 5.1 percentage of total fatty acids
18:1n7 (Adipose, lipid class CE): 3.5 percentage of total fatty acids
18:1n9 (Adipose, lipid class CE): 26.2 percentage of total fatty acids
Saturates (Adipose, lipid class CE): 35.7 percentage of total fatty acids
Total (Adipose, lipid class CE): 100.0 percentage of total fatty acids
Total n7 (Adipose, lipid class CE): 10.3 percentage of total fatty acids
Total n9 (Adipose, lipid class CE): 28.8 percentage of total fatty acids
14:0 (Adipose, lipid class FFA): 2.6 percentage of total fatty acids
16:0 (Adipose, lipid class FFA): 21.7 percentage of total fatty acids
16:1n7 (Adipose, lipid class FFA): 9.2 percentage of total fatty acids
18:0 (Adipose, lipid class FFA): 6.8 percentage of total fatty acids
18:1n7 (Adipose, lipid class FFA): 2.8 percentage of total fatty acids
18:1n9 (Adipose, lipid class FFA): 30.7 percentage of total fatty acids
Saturates (Adipose, lipid class FFA): 31.8 percentage of total fatty acids
Total (Adipose, lipid class FFA): 100.0 percentage of total fatty acids
Total n7 (Adipose, lipid class FFA): 12.0 percentage of total fatty acids
Total n9 (Adipose, lipid class FFA): 31.5 percentage of total fatty acids
14:0 (Adipose, lipid class PL): 1.4 percentage of total fatty acids
16:0 (Adipose, lipid class PL): 19.9 percentage of total fatty acids
16:1n7 (Adipose, lipid class PL): 5.5 percentage of total fatty acids
18:0 (Adipose, lipid class PL): 16.1 percentage of total fatty acids
18:1n7 (Adipose, lipid class PL): 1.9 percentage of total fatty acids
18:1n9 (Adipose, lipid class PL): 14.6 percentage of total fatty acids
Saturates (Adipose, lipid class PL): 39.0 percentage of total fatty acids
Total (Adipose, lipid class PL): 100.0 percentage of total fatty acids
Total n7 (Adipose, lipid class PL): 7.4 percentage of total fatty acids
Total n9 (Adipose, lipid class PL): 15.3 percentage of total fatty acids
14:0 (Adipose, lipid class TAG): 3.3 percentage of total fatty acids
16:0 (Adipose, lipid class TAG): 26.9 percentage of total fatty acids
16:1n7 (Adipose, lipid class TAG): 10.8 percentage of total fatty acids
18:0 (Adipose, lipid class TAG): 2.9 percentage of total fatty acids
18:1n7 (Adipose, lipid class TAG): 2.0 percentage of total fatty acids
18:1n9 (Adipose, lipid class TAG): 31.9 percentage of total fatty acids
Saturates (Adipose, lipid class TAG): 33.3 percentage of total fatty acids
Total (Adipose, lipid class TAG): 100.0 percentage of total fatty acids
Total n7 (Adipose, lipid class TAG): 12.9 percentage of total fatty acids
Total n9 (Adipose, lipid class TAG): 32.2 percentage of total fatty acids
lipid concentrations in plasma (CL316,243 4 weeks vs controls): decreased
lipid synthesis in tissues (CL316,243 4 weeks vs controls (Table 7)): decreased
vaccenic acid concentrations in these lipid classes (CL316,243 4 weeks vs controls, heart, liver, adipose, plasma): typically decreased
14:0 (Heart, CE): 59.3 nanomoles per gram
16:0 (Heart, CE): 187.4 nanomoles per gram
16:1n7 (Heart, CE): 36.2 nanomoles per gram
18:0 (Heart, CE): 85.3 nanomoles per gram
18:1n7 (Heart, CE): 19.6 nanomoles per gram
18:1n9 (Heart, CE): 389.5 nanomoles per gram
Saturates (Heart, CE): 366.8 nanomoles per gram
Total n7 (Heart, CE): 55.8 nanomoles per gram
Total n9 (Heart, CE): 405.7 nanomoles per gram
Total nMole of FA (Heart, CE): 1226.9 nanomoles per gram
14:0 (Heart, CL): 76.3 nanomoles per gram
16:0 (Heart, CL): 231.1 nanomoles per gram
16:1n7 (Heart, CL): 204.0 nanomoles per gram
18:0 (Heart, CL): 397.1 nanomoles per gram
18:1n7 (Heart, CL): 381.8 nanomoles per gram
18:1n9 (Heart, CL): 956.2 nanomoles per gram
Saturates (Heart, CL): 776.3 nanomoles per gram
Total n7 (Heart, CL): 585.8 nanomoles per gram
Total n9 (Heart, CL): 1011.4 nanomoles per gram
Total nMole of FA (Heart, CL): 2975.1 nanomoles per gram
14:0 (Heart, FFA): 181.4 nanomoles per gram
16:0 (Heart, FFA): 1012.4 nanomoles per gram
16:1n7 (Heart, FFA): 156.8 nanomoles per gram
18:0 (Heart, FFA): 427.8 nanomoles per gram
18:1n7 (Heart, FFA): 139.4 nanomoles per gram
18:1n9 (Heart, FFA): 1964.0 nanomoles per gram
Saturates (Heart, FFA): 1683.2 nanomoles per gram
Total n7 (Heart, FFA): 296.1 nanomoles per gram
Total n9 (Heart, FFA): 2017.6 nanomoles per gram
Total nMole of FA (Heart, FFA): 6044.8 nanomoles per gram
14:0 (Heart, PC): 94.6 nanomoles per gram
16:0 (Heart, PC): 8127.9 nanomoles per gram
16:1n7 (Heart, PC): 108.7 nanomoles per gram
18:0 (Heart, PC): 5235.9 nanomoles per gram
18:1n7 (Heart, PC): 568.2 nanomoles per gram
18:1n9 (Heart, PC): 1990.2 nanomoles per gram
Saturates (Heart, PC): 13577.6 nanomoles per gram
Total n7 (Heart, PC): 676.9 nanomoles per gram
Total n9 (Heart, PC): 2052.1 nanomoles per gram
Total nMole of FA (Heart, PC): 15087.3 nanomoles per gram
14:0 (Heart, PE): 27.5 nanomoles per gram
16:0 (Heart, PE): 1814.0 nanomoles per gram
16:1n7 (Heart, PE): 59.6 nanomoles per gram
18:0 (Heart, PE): 5241.4 nanomoles per gram
18:1n7 (Heart, PE): 250.5 nanomoles per gram
18:1n9 (Heart, PE): 934.9 nanomoles per gram
14:0 (Heart, PL): 170.5 nanomoles per gram
16:0 (Heart, PL): 10799.7 nanomoles per gram
16:1n7 (Heart, PL): 344.7 nanomoles per gram
18:0 (Heart, PL): 13320.8 nanomoles per gram
18:1n7 (Heart, PL): 1181.0 nanomoles per gram
18:1n9 (Heart, PL): 4121.5 nanomoles per gram
14:0 (Heart, PS/I): 33.4 nanomoles per gram
